Values of other authors as cited in patent publication US12176087B2, “Pharmacogenomic decision support for modulators of the NMDA, glycine, and AMPA receptors” (THE REGENT OF THE UNIVERSITY OF MICHIGAN, priority 2019, dated 2024).

Columns and labels:
[1] = system: treatment-resistant depression (TRD) patients
[2] = system: TRD patients; conditions: phase III trial

Row | Compound | TRD patients who do not remit after treatment ([1]; fraction of all TRD patients) | TRD patients with rapid antidepressant response and concomitant elevated levels of glutamate in cortex ([1]; measured by MADRS total score) | deaths reported [2] | TRD patients who experienced severe dissociative effects ([2]; fraction of TRD patients) | TRD patients in the treatment arm with severe psychotomimetic effects including delirium, delusion and suicidal ideation, as well as suicide attempts ([2]; treatment arm, additional) [%]
1 | CNC1(c2ccccc2Cl)CCCCC1=O (racemic) [Ketamine, RS-2-chlorophenyl-2-methylamino-cyclohexanone] | about half | approximately 50% |  |  | 
2 | CN[C@]1(c2ccccc2Cl)CCCCC1=O [Esketamine] |  |  | 2 | a quarter | 6.9
